Patent US20130071933A1, “CITRUS SHOOT REGENERATION COMPOSITIONS, METHODS, AND SYSTEMS” (priority 2011, published 2013)
“Also recorded” adds a separate entry of the source.

What was measured:
[1] = tested on: mature internodal stem segments of sweet orange cv. Hamlin; experiment: Culture of explants on DBA3 medium with surfactant: fresh weight and shoot regeneration; type: cell-based, Citrus sinensis; conditions: for % Organogenic explants / Total shoot yield: 60 explants/treatment
Experimental: Mature budwood collected from C. sinensis cv. Hamlin from virus-free greenhouse material were grafted onto seedlings of rough lemon (C. jambhiri Lush.) and maintained in a greenhouse (20-27° C.). The developing shoots were allowed to grow as one, two and three flushes, each used separately for experimental studies. Shoots (approx. 20 cm in length) were pruned from each plant and used for explant preparation. The stems were stripped of their thorns and leaves, surface-sterilized in 70% ethanol (1 min), disinfected for 20 min in 20% (v/v) domestic bleach solution containing 0.2% (v/v) Tween® 20 and washed five times with sterile distilled water. Internodal stem explants were cut transversely into 1 cm long segments and placed horizontally onto the culture media with the cut ends submerged (approx. 2 mm) into the medium. […] The non-ionic surfactants were dissolved in sterile-distilled water and then filter-sterilized before adding to the medium after autoclaving, along with filter-sterilized Gamborg B5 vitamins and de-proteinized coconut water. Cultures were maintained in the light (60 μm m^−2s^−1 cool light fluorescent tubes) under a 16 h photoperiod at 28±2° C. and subcultured at 21-28 d intervals. After 10 weeks, the weight of each explant and the number of adventitious shoots was recorded. This experiment was repeated for each of the first three flushes of shoots to compare growth and shoot regeneration efficiencies.

[2] = tested on: shoots regenerated from mature stem segments of sweet orange cv. Hamlin; experiment: Grafting of regenerated adventitious shoots onto rough lemon rootstock: survival and growth; type: in vivo, Citrus sinensis
Source text: Adventitious shoots (0.5 cm long) were excised from mature stem segments and grafted in vivo onto rough lemon seedlings. Briefly, rough lemon seedlings (approx. 25-30 cm in height) were decapitated (approx. 15 cm above ground) where the diameter of the stem equals the width of the shoot (2-3 mm). A 5 mm deep longitudinal cut is made into the cambium layer of the seedling into which the shoot is wedged and the grafted area sealed with Parafilm. The shoot is wounded, each side, by removing approx. 1 mm of the surface with a scalpel blade in the same plane as the exposed cambium layer to promote growth of the new shoot. The whole plant is covered with a clear plastic bag and maintained in the light (100 μm^−2s^−1 cool light fluorescent tubes) under a 16 h photoperiod at 22-24° C. After approx. 21 d, the grafted shoot starts to grow and the bag is gradually opened to aid acclimatization. The plant is then transferred to the greenhouse approx. 28 d later and allowed to grow to maturity.
Shoots (approx. 1 cm in length) were excised from explants and grafted onto a rough lemon rootstock to allow growth and development. […] This phenotype of growth and development is typical of a mature citrus tree as observed in previous studies on the tissue culture of mature internodal stem segments (Cervera et al., 1998, Transgenic Res 7: 51-59).

[3] = tested on: cotyledonary explants of Jute; conditions: cited from earlier work
[4] = Flush 1, surfactant 0.001%, 10 weeks of culture
[5] = Flush 1, surfactant 0.01%, 10 weeks of culture
[6] = Flush 1, surfactant 0.1%, 10 weeks of culture
[7] = Flush 1, surfactant 0.5%, 10 weeks of culture
[8] = Flush 2, surfactant 0.001%, 10 weeks of culture
[9] = Flush 2, surfactant 0.01%, 10 weeks of culture
[10] = Flush 2, surfactant 0.1%, 10 weeks of culture
[11] = Flush 2, surfactant 0.5%, 10 weeks of culture
[12] = Flush 3, surfactant 0.001%, 10 weeks of culture
[13] = Flush 3, surfactant 0.01%, 10 weeks of culture
[14] = Flush 3, surfactant 0.1%, 10 weeks of culture
[15] = Flush 3, surfactant 0.5%, 10 weeks of culture
[16] = shoots from explants cultured at 0.001-0.1% (v/v), rough lemon rootstock

polyethylene glycol p-(1,1,3,3-tetramethylbutyl)-phenyl ether [Triton® X-100]
Mean fresh weight ([1]; 0.001% (v/v) in DBA3, first flush): 347±24 mg f. wt.
number of shoots per explant and number of explants giving shoots compared to the control ([1]; 0.001% (v/v) in DBA3, first two flushes): lower compared to the control
Mean fresh weight ([1]; 0.001% (v/v) in DBA3, second flush): 309±23 mg f. wt.
fresh weight gain, number of shoots per explant and number giving shoots compared to DBA3 without surfactant ([1]; 0.1-0.5% (v/v) in DBA3): significantly (P<0.05) reduced
shoot regeneration ([1]; 0.5% (v/v) in DBA3): failed to regenerate shoots
Mean fresh weight [1, 4]: 347 ± 24 mg
Mean number of shoots per explant [1, 4]: 0.13 ± 0.06
% Organogenic explants [1, 4]: 10%
Total shoot yield [1, 4]: 8
Mean fresh weight [1, 5]: 254 ± 13 mg
Mean number of shoots per explant [1, 5]: 0.18 ± 0.07
% Organogenic explants [1, 5]: 13.5%
Total shoot yield [1, 5]: 11
Mean fresh weight [1, 6]: 153 ± 7 mg
Mean number of shoots per explant [1, 6]: 0.08 ± 0.04
% Organogenic explants [1, 6]: 6.5%
Total shoot yield [1, 6]: 5
Mean fresh weight [1, 7]: 75 ± 3 mg
Mean number of shoots per explant [1, 7]: 0.00 ± 0.00
% Organogenic explants [1, 7]: 0%
Total shoot yield [1, 7]: 0
Mean fresh weight [1, 8]: 309 ± 23 mg
Mean number of shoots per explant [1, 8]: 0.07 ± 0.03
% Organogenic explants [1, 8]: 6.5%
Total shoot yield [1, 8]: 4
Mean fresh weight [1, 9]: 264 ± 14 mg
Mean number of shoots per explant [1, 9]: 0.10 ± 0.05
% Organogenic explants [1, 9]: 6.5%
Total shoot yield [1, 9]: 6
Mean fresh weight [1, 10]: 158 ± 7 mg
Mean number of shoots per explant [1, 10]: 0.05 ± 0.03
% Organogenic explants [1, 10]: 5%
Total shoot yield [1, 10]: 3
Mean fresh weight [1, 11]: 85 ± 4 mg
Mean number of shoots per explant [1, 11]: 0.00 ± 0.00
% Organogenic explants [1, 11]: 0%
Total shoot yield [1, 11]: 0
Mean fresh weight [1, 12]: 135 ± 7 mg
Mean number of shoots per explant [1, 12]: 0.08 ± 0.04
% Organogenic explants [1, 12]: 6.5%
Total shoot yield [1, 12]: 5
Mean fresh weight [1, 13]: 126 ± 6 mg
Mean number of shoots per explant [1, 13]: 0.02 ± 0.02
% Organogenic explants [1, 13]: 1.5%
Total shoot yield [1, 13]: 1
Mean fresh weight [1, 14]: 89 ± 3 mg
Mean number of shoots per explant [1, 14]: 0.00 ± 0.00
% Organogenic explants [1, 14]: 0%
Total shoot yield [1, 14]: 0
Mean fresh weight [1, 15]: 61 ± 8 mg
Mean number of shoots per explant [1, 15]: 0.00 ± 0.00
% Organogenic explants [1, 15]: 0%
Total shoot yield [1, 15]: 0
shoots survived / shoots grafted [2, 16]: 5/15
survival rate of shoots following grafting [2, 16]: 33%
growth of explants ([3]; 0.001% (v/v)): increased also the growth
state of shoots after transfer to shoot elongation medium ([3]; 0.001%, after 14-21 days): became necrotic
shoot regeneration of jute cotyledons [3]: able to promote shoot regeneration
growth and regeneration of explants ([3]; concentrations above 0.001% (v/v)): inhibited the growth and regeneration

polyoxyethylene (20) sorbitan monolaurate [Tween® 20]
Mean fresh weight [1, 4]: 273 ± 15 mg
Mean number of shoots per explant [1, 4]: 0.23 ± 0.08
% Organogenic explants [1, 4]: 15%
Total shoot yield [1, 4]: 14
Mean fresh weight [1, 5]: 218 ± 12 mg
Mean number of shoots per explant [1, 5]: 0.25 ± 0.07
% Organogenic explants [1, 5]: 18.5%
Total shoot yield [1, 5]: 15
Mean fresh weight [1, 6]: 269 ± 13 mg
Mean number of shoots per explant [1, 6]: 0.31 ± 0.08
% Organogenic explants [1, 6]: 23%
Total shoot yield [1, 6]: 19
Mean fresh weight [1, 7]: 253 ± 12 mg
Mean number of shoots per explant [1, 7]: 0.18 ± 0.06
% Organogenic explants [1, 7]: 15%
Total shoot yield [1, 7]: 11
Mean fresh weight [1, 8]: 240 ± 15 mg
Mean number of shoots per explant [1, 8]: 0.22 ± 0.07
% Organogenic explants [1, 8]: 15%
Total shoot yield [1, 8]: 13
Mean fresh weight [1, 9]: 260 ± 13 mg
Mean number of shoots per explant [1, 9]: 0.20 ± 0.07
% Organogenic explants [1, 9]: 13.5%
Total shoot yield [1, 9]: 12
Mean fresh weight [1, 10]: 302 ± 19 mg
Mean number of shoots per explant [1, 10]: 0.22 ± 0.07
% Organogenic explants [1, 10]: 17%
Total shoot yield [1, 10]: 13
Mean fresh weight [1, 11]: 250 ± 13 mg
Mean number of shoots per explant [1, 11]: 0.17 ± 0.06
% Organogenic explants [1, 11]: 13.5%
Total shoot yield [1, 11]: 10
Mean fresh weight [1, 12]: 193 ± 8 mg
Mean number of shoots per explant [1, 12]: 0.07 ± 0.03
% Organogenic explants [1, 12]: 7%
Total shoot yield [1, 12]: 4
Mean fresh weight [1, 13]: 161 ± 7 mg
Mean number of shoots per explant [1, 13]: 0.05 ± 0.03
% Organogenic explants [1, 13]: 5%
Total shoot yield [1, 13]: 3
Mean fresh weight [1, 14]: 155 ± 7 mg
Mean number of shoots per explant [1, 14]: 0.08 ± 0.04
% Organogenic explants [1, 14]: 8.5%
Total shoot yield [1, 14]: 5
Mean fresh weight [1, 15]: 130 ± 6 mg
Mean number of shoots per explant [1, 15]: 0.05 ± 0.03
% Organogenic explants [1, 15]: 5%
Total shoot yield [1, 15]: 3
weight of explants compared to medium without surfactant ([1]; all three flushes of growth): no significant difference
growth of vitrified shoots following grafting ([2]; shoots from explants cultured on DBA3 with surfactant (0.01-0.5% (v/v))): failed to graft successfully in vivo; also recorded: all failed to initiate growth following grafting
fresh weight gain ([3]; 0.001-0.01% (v/v)): significantly increased
number of regenerants ([3]; 0.001-0.01% (v/v)): significantly increased
growth ([3]; 0.5% (v/v)): inhibitory to growth
shoot production ([3]; 0.5% (v/v)): inhibited
shoot regeneration of jute cotyledons [3]: able to promote shoot regeneration
